Read-outs that look alike come from different tables or passages of the source.
What was measured:
[1] = Cytotoxicity by MTT assay, reported with the IL-1 assay (Table I); format: cell-based; settings: mouse, thymocytes, cytotoxic when toxicity greater than 25%
Experimental: (§1) Potential cytotoxicity of the test samples was assessed by the measurement of their effect on the reduction of MTT (3-[4,5-Dimethylthiazole-2-yl]-2,5-diphenyltetrazolium bromide) by cultured cells. MTT, a yellow-colored compound, is reduced by mitochondrial enzymes to form the purple crystalline reduction product formazane, providing an index of cellular respiration on viable cells as well as a sensitive assay for cytotoxicity (Mossmann, 1983).
(§2) The cytotoxicity was assessed in cultured human PBMC and mouse thymocytes. A stock solution of MTT (Sigma) at 5 mg/ml in phosphate buffered saline, pH 7.4, was prepared and stored in the dark at 4° C. PBMCs or thymocytes were cultured with various concentrations of test samples in flatbottom 96-well tissue culture plates (Costar) under the same conditions as those described above, but the stimulants (X-35 or IL-1+PHA) were replaced by appropriate medium. Untreated cells with medium alone and without the test samples were used as controls. After incubation for 21 hours, 25 μl of MTT solution was added to each well. After an additional three hours of incubation, the experiment was terminated by addition of a solution of 10% sodium dodecyl sulfate in 0.01N HCl. Following overnight incubation at 37° C. to solubilize the formazane crystals, optical density was determined at 570-650 nm in microplate reader. […]

[2] = test system: spleen cells (C57BL/6 responder, irradiated Balb/C stimulator); test: Mixed lymphocyte reaction (MLR): inhibition of responder spleen cell proliferation; format: cell-based; settings: Mus musculus, 96 h, four days incubation
Experimental: Inhibition of cell proliferation in the mixed lymphocyte reaction (MLR) (Bradley, 1980; Mishell, 1980) is a measure of in vivo immunosuppression. Spleen cells from female C57BL/6 mice, the "responder" cells, were prepared and co-cultured alone or in the presence of varying concentrations of the test compounds, with irradiated spleen cells prepared from female Balb/C mice, the "stimulator" cells. Prior irradiation of the stimulator cells rendered them unable to proliferate. A sample of the responder cells was also irradiated for use as a control. The non-irradiated responder cells proliferate in the presence of the allogenic stimulator cells. After a 78-hour incubation, tritiated thymidine was added to the mixed cell cultures, and incorporation of the labeled nucleotide into DNA was measured as an index of cell proliferation. […]
In the assay, 4×10^5 cells of R were cocultured with 4×10^5 cells of Sx in 200 μl of medium in round bottom 96 well tissue culture plates. […] The spontaneous proliferation of R was also measured.
The culture plates were incubated at 37° C. in a 5% CO2 incubator for four days. […] Cells were then harvested and counted. […] Sample cpm was calculated as (R+Sx+sample)cpm-(R+Rx +sample)cpm; control cpm was calculated as (R+Sx)cpm-(R+Rx)cpm. Percent suppression of MLR activity was calculated as (1-sample cpm/control cpm)×100. […]

[3] = Cytotoxicity by MTT assay, reported with the MLR assay (Table II); format: cell-based; settings: pbmc and thymocytes, cytotoxic when toxicity greater than 25%
Experimental: as §1, §2

[4] = Stability in blood serum (TLC); format: in vitro ADME; settings: rat serum, 37° C
Experimental: The stability of triptolide succinate in blood serum was determined as detailed in Example 10B. In this study, a solution of triptolide succinate (YM-262, free acid) in DMSO was mixed with rat serum and incubated at 37° C. The mixture was assayed periodically by thin layer chromatography (TLC) to follow the hydrolysis of the triptolide succinate over time.
A solution of triptolide succinate (free acid; YM-262) in DMSO was made at a concentration of 25 mg/ml, and 0.1 ml of this solution was mixed with 0.5 ml of rat serum. The mixture was incubated at 37° C. Aliquots of the mixture were taken at 1, 3, 5, 15, 45 minutes and 18 hours and analyzed by thin layer chromatography (TLC). The TLC plates were developed in 1:5 CH2 CI2 /Et2 O. After development, the plates were treated with iodine vapor and examined under a UV lamp. Triptolide and triptolide succinate were used as reference compounds (Rf =0.60), and 0.45, respectively).

CC(C)[C@]12O[C@H]1[C@@H]1O[C@]13[C@]1(O[C@H]1C[C@H]1C4=C(CC[C@@]13C)C(=O)OC4)[C@@H]2O [Triptolide, triptolide]
MCC [1]: > 12.5 µg/mL
IC50 ([2]; read-out: IC50 (concentration of sample producing 50% suppression of proliferation), MLR assay): 0.9 ng/mL
IC50 ([2]; read-out: IC50, MLR assay): 2.5 nM
MCC [3]: 0.0133 µg/mL
triptolide spot, 15 minutes (formed from triptolide succinate) ([4]; 15 minutes): a new spot corresponding to triptolide had appeared
triptolide spot, 45 minutes (formed from triptolide succinate) ([4]; 45 minutes): the triptolide spot had also disappeared
